What all share (assay type): in vivo
In experiment [1] the test system is Amaranthus retroflexus (AMARE). Nature of the experiment: Example B pre-emergence herbicidal activity, glasshouse pot test. To be noted: 312 h, rate 250 g/ha, evaluated after 13 days, read-out: Pre-emergence activity AMARE (100=total damage to plant; 0=no damage to plant). In outline:
(§1)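 Compound sprayed in acetone/water (50:50) plus 0.5% Tween 20 onto potted soil one day post-sowing, or onto seedlings after 8 days. Scored 0–100 for damage after 13 days.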

Experiment [2] has as its system Alopecurus myosuroides (ALOMY). The experiment is described as above. The note with it: 312 h, rate 250 g/ha, evaluated after 13 days, read-out: Pre-emergence activity ALOMY (100=total damage to plant; 0=no damage to plant). In outline: as §1
The subject of experiment [3] is Echinochloa crus-galli (ECHCG). Described as above. The note with it: 312 h, rate 250 g/ha, evaluated after 13 days, read-out: Pre-emergence activity ECHCG (100=total damage to plant; 0=no damage to plant). In outline:
as §1

In experiment [4] the test system is Avena fatua (AVEFA). Described as above. To be noted: 312 h, rate 250 g/ha, evaluated after 13 days, read-out: Pre-emergence activity AVEFA (100=total damage to plant; 0=no damage to plant). The method, boiled down: as §1
In experiment [5] the test system is Setaria faberi (SETFA). Described as above. The note with it: 312 h, rate 250 g/ha, evaluated after 13 days, read-out: Pre-emergence activity SETFA (100=total damage to plant; 0=no damage to plant). In outline: as §1
Experiment [6] has as its system Amaranthus retroflexus (AMARE). Nature of the experiment: Example B post-emergence herbicidal activity, glasshouse pot test. To be noted: 312 h, rate 250 g/ha, evaluated after 13 days, read-out: Post-emergence activity AMARE (100=total damage to plant; 0=no damage to plant). In outline: as §1
Experiment [7] relates to Alopecurus myosuroides (ALOMY). The description is as above. To be noted: 312 h, rate 250 g/ha, evaluated after 13 days, read-out: Post-emergence activity ALOMY (100=total damage to plant; 0=no damage to plant). The method, boiled down: as §1
The test system of experiment [8] is Echinochloa crus-galli (ECHCG). The description is as above. The note with it: 312 h, rate 250 g/ha, evaluated after 13 days, read-out: Post-emergence activity ECHCG (100=total damage to plant; 0=no damage to plant). The method, boiled down: as §1
For experiment [9], the system named is Avena fatua (AVEFA). The experiment is described as above. To be noted: 312 h, rate 250 g/ha, evaluated after 13 days, read-out: Post-emergence activity AVEFA (100=total damage to plant; 0=no damage to plant). In outline: as §1
In experiment [10] the test system is Setaria faberi (SETFA). The description is as above. The note with it: 312 h, rate 250 g/ha, evaluated after 13 days, read-out: Post-emergence activity SETFA (100=total damage to plant; 0=no damage to plant). In outline:
as §1

As for `CC(=O)OC1=C(c2cc(-c3ccc(Cl)cn3)ccc2C)C(=O)C(C)(C)OC1(C)C` [Compound D-28], the pest or weed control at 250 g/ha turned out to be 0% in experiment [1]; 30% in [2]; 20% in [3]; 40% in experiment [4]; 80% in experiment [5]; 0% in [6]. Also, the pest or weed control at 250 g/ha in experiment [7] worked out at 80%; in experiment [8], 90%; in experiment [9], 50%; in experiment [10] it was 80%.
For `CCc1ccc(-c2cc(Cl)c(Cl)c(Cl)c2)cc1C1=C(O)C(C)(C)OC(C)(C)C1=O` [Compound A-139], the pest or weed control at 250 g/ha in [1] stood at 0%; in [2] it was 0%; in experiment [3] it was 30%; in experiment [4] it was 0%; in experiment [5], 70%; in [6] it was 50%. Besides, the pest or weed control at 250 g/ha in experiment [7] was found to be 30%; in experiment [8], 100%; in experiment [9], 50%; in experiment [10], 80%.
For `CCc1ccc(-c2ccc(Cl)c(F)c2)cc1C1=C(O)[C@]2(C)O[C@@H](CC2COC)C1=O` (stereo partly shown) [Compound A-127], the pest or weed control at 250 g/ha in experiment [1] came out at 0%; in experiment [2] it was 30%; in [3], 50%; in experiment [4] it was 70%; in experiment [5] it was 90%; in experiment [6], 0%. In addition, the pest or weed control at 250 g/ha in [7] is 80%; in experiment [8], 100%; in experiment [9], 40%; in experiment [10], 100%.
Consider `CCc1ccc(-c2ccc(Cl)c(Cl)c2)cc1C1=C(O)[C@@]2(C)CC[C@H](O2)C1=O` (single isomer, unassigned) [Compound A-123], for which the pest or weed control at 250 g/ha in [1] was 0%; in [2] it was 50%; in experiment [3] it was 70%; in experiment [4], 80%; in [5], 100%; in experiment [6] it was 0%. Further, the pest or weed control at 250 g/ha in experiment [7] was determined as 90%; in experiment [8] it was 100%; in experiment [9], 70%; in experiment [10], 100%.
In the case of `CCOc1ccc(-c2ccc(Cl)cc2F)cc1C1=C(O)C(C)(C)OC(C)(C)C1=O` [Compound A-88], the pest or weed control at 250 g/ha is 0% in [1]; 0% in experiment [2]; 0% in [3]; 10% in experiment [4]; 0% in experiment [5]; 0% in [6]. The pest or weed control at 250 g/ha in experiment [7] was 50%; in experiment [8] it was 90%; in experiment [9], 10%; in [10] it was 90%.
As for `CCc1ccc(-c2ccc(Cl)c(Cl)c2)cc1C1=C(O)[C@]2(C)O[C@@H](CC2COC)C1=O` (stereo partly shown) [Compound A-130], the pest or weed control at 250 g/ha in experiment [1] came out at 0%; in experiment [2], 20%; in [3], 40%; in [4] it was 20%; in experiment [5] it was 90%; in experiment [6] it was 0%. Also, the pest or weed control at 250 g/ha turned out to be 40% in [7], 100% in [8], 40% in experiment [9] and 100% in experiment [10].
Regarding `CCc1ccc(-c2ccc(Cl)nc2)cc1C1=C(O)C(C)(C)OC(C)(C)C1=O` [Compound A-76], the pest or weed control at 250 g/ha in experiment [1] is 0%; in experiment [2], 60%; in [3], 70%; in experiment [4] it was 50%; in [5], 100%; in [6], 0%. Moreover, the pest or weed control at 250 g/ha turned out to be 90% in experiment [7], 100% in experiment [8], 70% in [9] and 100% in experiment [10].
On to `CCc1ccc(-c2ccc(Cl)c(C(F)(F)F)c2F)cc1C1=C(O)C(C)(C)OC(C)(C)C1=O` [Compound A-154], for which the pest or weed control at 250 g/ha stood at 0% in experiment [1]; 50% in experiment [2]; 100% in [3]; 20% in experiment [4]; 90% in [5]; 0% in experiment [6]. The pest or weed control at 250 g/ha stood at 100% in experiment [7], 100% in [8], 70% in experiment [9] and 100% in experiment [10].
As for `COc1ccc(-c2ccc(Cl)c(F)c2)cc1C1=C(O)C(C)(C)OC(C)(C)C1=O` [Compound A-96], the pest or weed control at 250 g/ha in experiment [1], in [2], in [3], in [4], in experiment [5] and in [6] was 0% throughout. Also, the pest or weed control at 250 g/ha worked out at 50% in experiment [7], 100% in experiment [8], 30% in [9] and 90% in [10].
For `CCc1ccc(-c2ccc(Cl)cc2Cl)cc1C1=C(O)[C@@]2(C)CC[C@H](O2)C1=O` (single isomer, unassigned) [Compound A-128], the pest or weed control at 250 g/ha in experiment [1] was 0%; in experiment [2] it was 40%; in [3], 70%; in experiment [4], 80%; in experiment [5] it was 90%; in experiment [6], 0%. The pest or weed control at 250 g/ha in experiment [7] came to 80%; in [8] it was 100%; in experiment [9], 90%; in experiment [10], 100%.
In the case of `CCc1ccc(-c2c(Cl)cc(Cl)cc2Cl)cc1C1=C(O)C(C)(C)OC(C)(C)C1=O` [Compound A-74], the pest or weed control at 250 g/ha in experiment [1] is 10%; in experiment [2], 20%; in [3], 80%; in experiment [4] it was 0%; in experiment [5] it was 50%; in [6], 70%. The pest or weed control at 250 g/ha in experiment [7] is 0%; in experiment [8] it was 90%; in [9], 0%; in [10], 90%.
Regarding `CCc1ccc(-c2ccc(Cl)cc2C#N)cc1C1=C(O)C(C)(C)OC(C)(C)C1=O` [Compound A-100], the pest or weed control at 250 g/ha was found to be 60% in experiment [1]; 20% in [2]; 80% in [3]; 90% in experiment [4]; 100% in experiment [5]; 0% in experiment [6]. Besides, the pest or weed control at 250 g/ha in experiment [7] turned out to be 90%; in experiment [8], 100%; in experiment [9] it was 90%; in experiment [10] it was 100%.
Take `CCc1ccc(-c2ccc(Cl)cc2C)cc1C1=C(O)C(C)(C)OC(C)(C)C1=O` [Compound A-64]: the pest or weed control at 250 g/ha in experiment [1] came to 0%; in [2], 0%; in experiment [3] it was 40%; in [4], 20%; in [5], 40%; in [6], 20%. Further, the pest or weed control at 250 g/ha in experiment [7] came to 20%; in [8], 100%; in [9] it was 0%; in experiment [10] it was 90%.

(Values after patent publication US8680012B2, “4-phenyl-pyrane-3,5-diones,4-phenyl-thiopyrane-3,6-diones and cyclohexanetriones as novel herbicides” (Syngenta Crop Protection LLC, priority 2006, dated 2014).)
